Results reported in PMC10767194 (The Journal of Biological Chemistry, 2023).

Key:
[1] = molecular target: T1, Cdk9/CycT1 (Homo sapiens, UniProt P50750); test: radioactive in vitro kinase assay, Cdk9/CycT1; format: biochemical; details: 0, 0.1, 1, 10, 100 μM compound, 0.2 μM kinase, 0.2 mM ATP
T1 construct: Full-length, human, WT Cdk9 (residues 1–372, UniProt P50750); made in house; host or cells: Cdk9: Sf9 insect cells; CycT1: E. coli
Protocol: (§1) Radioactive kinase activity assays were performed in a total volume of 15 μl per sample in kinase assay buffer (50 mM Hepes/pH 7.6, 34 mM KCl, 7 mM MgCl2, 5 mM β-glycerol phosphate, and 2.5 mM dithioerythritol). Preincubation of 0.2 μM or 0.02 μM recombinant protein kinase with indicated concentrations of respective inhibitor and 0.2 to 2 mM ATP containing 0.45 mCi [^32P]-γ-ATP/ml (PerkinElmer) was carried out for 5 min. Kinase reactions were started by addition of substrate protein (10 μM GST-Rb1 for Cdk4/CycD3, 10 μM GST-CTD[52] for Cdk7/CycH/MAT1, 50 μM His-c-Myc for all others) and incubated for 20 min at 30 °C in a shaking incubator at 300 rpm. For pS7-CTD[3] peptide, the substrate concentration was increased to 100 μM and assays were performed for 60 min. Reactions were terminated by the addition of EDTA to a final concentration of 50 mM. […] Radioactive counts were determined in a Beckman Liquid Scintillation Counter (Beckman Coulter) for 1 min. […] IC50 values were extracted from triplicate measurements by sigmoidal curve fitting using DataGraph (v. 5.0; https://www.visualdatatools.com/DataGraph/) or were determined by applying the Morrison quadratic equation for tight binding inhibitors using GraphPad Prism 10 (https://www.graphpad.com/) ([40]).

[2] = molecular target: T2, Cdk13/CycK (Homo sapiens, UniProt Q14004); test: nanoDSF thermal protein stability, Cdk13/CycK; format: binding; details: 5 μM protein
T2 construct: The kinase domain of human Cdk13 (residues 694–1039, UniProt Q14004); made in house; host or cells: Sf9 insect cells, co-expressed with CAK1
Protocol: (§2) At 10 μM concentration, the thermal shift observed was +4.7 °C, while at 100 μM the thermal stability was increased by +6.2 °C (Table S2) compared to a DMSO control. Together, the results obtained from both SPR and nanoDSF measurements align well with the IC50 values determined for Cdk12∗/CycK and Cdk13∗/CycK kinases.
(§3) For identification of thermal protein stability, nanoDSF experiments were conducted using a Prometheus NT.48 (NanoTemper) instrument. […] at the wavelengths λ = 330 and 350 nm were monitored at an excitation power of 25% in a temperature range from 20 to 90 °C with a slope of 1.5 °C/min. The measurement was conducted and evaluated with the PR.ThermControl software (https://nanotempertech.com/prometheus/nt48-software/). Experiments were conducted in duplicates.

[3] = tested on: T3, DYRK1A; test: radioactive in vitro kinase assay, DYRK1A; format: biochemical, human; details: 0, 0.1, 1, 10, 100 μM compound, 0.2 μM kinase, 0.2 mM ATP
T3 construct: The kinase domain of human DYRK1A (residues 126–485, UniProt Q13627); made in house; host or cells: E. coli BL21 pLysS
Protocol: as §1

[4] = molecular target: T4, Cdk10/CycQ (Homo sapiens, UniProt Q15131); test: radioactive in vitro kinase assay, Cdk10/CycQ; format: biochemical; details: 0.2 mM ATP
T4 construct: Full-length, human, WT Cdk10 (residues 1–360, UniProt Q15131); made in house; host or cells: Sf9 insect cells
Protocol: as §1

[5] = molecular target: T5, Cdk12/CycK (Homo sapiens, UniProt Q9NYV4); test: radioactive in vitro kinase assay, Cdk12/CycK; format: biochemical; details: 0, 0.1, 1, 10, 100 μM compound, 0.2 μM Cdk12, 0.2 mM ATP, His-c-Myc, 20 min
T5 construct: GST (TEV site) (N, cleaved yes); made in house; host or cells: Sf9 insect cells, co-expressed with S. cerevisiae CAK1
Protocol: To a concentration of 0.2 μM kinase and 0.2 mM ATP, a compound concentration ranging from 0.1 nM to 1 mM was applied. Kinase reactions were started by the addition of 100 μM CTD peptide containing three hepta-repeats continuously prephosphorylated at position S7 (pS7-CTD[3]) and terminated after 60 min incubation time. In vitro IC50-values were determined by applying a sigmoidal fit to dose-response measurements (Fig. 1A).
Cdk12 kinase (0.2 μM) in the presence of 0.2 mM ATP were supplemented with respective compounds at concentrations of 0, 0.1, 1, 10, and 100 μM for 5 min. Upon addition of 50 μM His-c-Myc substrate the kinase assay reaction was conducted for 20 min.
Radioactive kinase activity assays were performed in a total volume of 15 μl per sample in kinase assay buffer (50 mM Hepes/pH 7.6, 34 mM KCl, 7 mM MgCl2, 5 mM β-glycerol phosphate, and 2.5 mM dithioerythritol). Preincubation of 0.2 μM or 0.02 μM recombinant protein kinase with indicated concentrations of respective inhibitor and 0.2 to 2 mM ATP containing 0.45 mCi [^32P]-γ-ATP/ml (PerkinElmer) was carried out for 5 min. Kinase reactions were started by addition of substrate protein (10 μM GST-Rb1 for Cdk4/CycD3, 10 μM GST-CTD[52] for Cdk7/CycH/MAT1, 50 μM His-c-Myc for all others) and incubated for 20 min at 30 °C in a shaking incubator at 300 rpm. For pS7-CTD[3] peptide, the substrate concentration was increased to 100 μM and assays were performed for 60 min. Reactions were terminated by the addition of EDTA to a final concentration of 50 mM. Reaction samples were separately spotted onto Amersham Protran nitrocellulose membranes (GE HealthCare) and subsequently washed three times for 5 min in PBS. Samples were transferred to 4 ml liquid scintillation vials and 2 ml liquid scintillator (Ultima Gold) were added. Radioactive counts were determined in a Beckman Liquid Scintillation Counter (Beckman Coulter) for 1 min. […] For analysis of dose response measurements and IC50 value determination, data of inhibitor-supplemented samples were normalized to DMSO solvent controls and their activity plotted against the inhibitor concentration. IC50 values were extracted from triplicate measurements by sigmoidal curve fitting using DataGraph (v. 5.0; https://www.visualdatatools.com/DataGraph/) or were determined by applying the Morrison quadratic equation for tight binding inhibitors using GraphPad Prism 10 (https://www.graphpad.com/) ([40]).

[6] = molecular target: T5, Cdk12/CycK; test: nanoDSF thermal protein stability, Cdk12/CycK; format: binding; details: 5 μM protein
Protocol: as §2, §3

T2 sequence (Q14004 694-1039): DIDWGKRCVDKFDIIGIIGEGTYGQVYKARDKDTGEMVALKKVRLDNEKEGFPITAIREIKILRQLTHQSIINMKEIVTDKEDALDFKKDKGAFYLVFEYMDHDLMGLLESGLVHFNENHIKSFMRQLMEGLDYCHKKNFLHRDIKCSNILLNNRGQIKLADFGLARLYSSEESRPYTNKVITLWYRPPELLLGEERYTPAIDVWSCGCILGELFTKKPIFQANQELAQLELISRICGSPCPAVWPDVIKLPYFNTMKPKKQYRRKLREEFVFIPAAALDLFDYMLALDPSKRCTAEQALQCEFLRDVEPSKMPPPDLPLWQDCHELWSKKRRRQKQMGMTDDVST
T2 sequence (O75909 1-267 partner limits assumed): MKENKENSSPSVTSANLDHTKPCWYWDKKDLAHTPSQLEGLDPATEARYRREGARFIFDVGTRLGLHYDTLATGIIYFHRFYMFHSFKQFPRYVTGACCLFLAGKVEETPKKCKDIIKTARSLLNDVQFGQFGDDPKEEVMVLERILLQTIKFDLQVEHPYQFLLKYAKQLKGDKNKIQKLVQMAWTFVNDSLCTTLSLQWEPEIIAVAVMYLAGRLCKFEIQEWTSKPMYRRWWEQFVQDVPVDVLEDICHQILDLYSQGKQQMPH
T5 sequence (Q9NYV4 714-1063): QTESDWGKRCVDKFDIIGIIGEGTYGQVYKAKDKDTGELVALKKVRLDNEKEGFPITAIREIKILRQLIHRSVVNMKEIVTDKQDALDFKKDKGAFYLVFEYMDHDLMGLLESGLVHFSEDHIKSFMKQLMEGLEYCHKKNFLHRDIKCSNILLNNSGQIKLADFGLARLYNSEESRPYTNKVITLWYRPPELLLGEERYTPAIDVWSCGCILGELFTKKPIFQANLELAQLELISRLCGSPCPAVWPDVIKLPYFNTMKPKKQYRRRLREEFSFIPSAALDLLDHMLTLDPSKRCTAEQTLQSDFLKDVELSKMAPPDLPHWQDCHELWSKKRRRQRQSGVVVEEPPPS
T5 sequence (O75909 1-267 partner limits assumed): as the sequence (O75909 1-267 partner limits assumed) above
T4 sequence (Q15131 whole entry, the tested form may be a part): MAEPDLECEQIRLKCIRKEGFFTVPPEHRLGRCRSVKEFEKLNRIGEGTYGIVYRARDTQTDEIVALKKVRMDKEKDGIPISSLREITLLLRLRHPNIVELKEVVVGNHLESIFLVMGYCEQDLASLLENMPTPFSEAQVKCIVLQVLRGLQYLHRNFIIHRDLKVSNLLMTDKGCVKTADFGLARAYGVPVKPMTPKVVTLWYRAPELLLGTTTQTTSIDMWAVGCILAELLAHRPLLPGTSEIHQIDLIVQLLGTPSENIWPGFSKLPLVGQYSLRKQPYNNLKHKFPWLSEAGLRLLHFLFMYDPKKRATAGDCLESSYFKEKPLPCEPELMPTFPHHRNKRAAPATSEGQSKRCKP
T4 sequence (Q8N1B3 whole entry partner, the tested form may be a part): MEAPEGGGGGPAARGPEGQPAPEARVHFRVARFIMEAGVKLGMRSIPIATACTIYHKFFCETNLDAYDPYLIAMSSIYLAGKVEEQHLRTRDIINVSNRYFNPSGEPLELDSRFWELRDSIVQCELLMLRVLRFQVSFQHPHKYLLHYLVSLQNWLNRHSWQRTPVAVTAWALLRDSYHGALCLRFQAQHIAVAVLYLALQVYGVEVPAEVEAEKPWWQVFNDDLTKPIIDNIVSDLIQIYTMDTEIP
T1 sequence (P50750 whole entry, the tested form may be a part): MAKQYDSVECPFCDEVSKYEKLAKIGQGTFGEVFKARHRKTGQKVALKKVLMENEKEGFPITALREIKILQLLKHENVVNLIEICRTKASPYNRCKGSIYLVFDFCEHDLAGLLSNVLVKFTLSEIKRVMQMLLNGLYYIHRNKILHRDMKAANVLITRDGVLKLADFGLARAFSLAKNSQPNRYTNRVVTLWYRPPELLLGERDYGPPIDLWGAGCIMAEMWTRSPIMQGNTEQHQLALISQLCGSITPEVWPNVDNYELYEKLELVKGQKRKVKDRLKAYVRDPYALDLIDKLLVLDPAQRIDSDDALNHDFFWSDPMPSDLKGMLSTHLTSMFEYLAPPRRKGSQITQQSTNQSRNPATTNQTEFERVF
T1 sequence (O60563 1-272 partner limits assumed): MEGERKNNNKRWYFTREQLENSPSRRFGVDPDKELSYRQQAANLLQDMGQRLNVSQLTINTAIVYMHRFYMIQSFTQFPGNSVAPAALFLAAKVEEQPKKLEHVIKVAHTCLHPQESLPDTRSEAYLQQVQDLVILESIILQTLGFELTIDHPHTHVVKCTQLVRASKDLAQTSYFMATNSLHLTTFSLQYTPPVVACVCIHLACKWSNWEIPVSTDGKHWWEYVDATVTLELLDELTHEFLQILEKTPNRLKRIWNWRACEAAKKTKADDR

## Cn1cc(-n2cnc3c(NCc4nc5cc(Cl)c(Cl)cc5[nH]4)nc(N4CCOCC4)nc32)cn1 [SR-4835]
[1]
  inhibition of Cdk9 activity: no inhibitory activity
[2]; 1 μM compound
  Tm, Cdk13/CycK: 54.40 °C
  ∆Tm to DMSO control, Cdk13/CycK: +0.25 °C
[2]; 10 μM compound
  Tm, Cdk13/CycK: 58.80 °C
[2]; 100 μM compound
  Tm, Cdk13/CycK: 60.30 °C
[3]
  inhibition of DYRK1A activity: not inhibited
[4]; 0, 0.1, 1, 10, 100 μM compound, 0.2 μM kinase
  inhibition of Cdk10/CycQ activity: moderate SR-4835 concentration dependent decrease
[4]; concentration range 1 nM to 1 mM, sigmoidal fit
  IC50: 1070 nM
[5]
  inhibitory effect on Cdk12/CycK activity, in words: modest effects
[6]; 1 μM compound
  Tm, Cdk12/CycK: 51.45 °C
  ∆Tm to DMSO control, Cdk12/CycK: +0.80 °C
[6]; 10 μM compound
  Tm, Cdk12/CycK: 58.70 °C
[6]; 100 μM compound
  Tm, Cdk12/CycK: 60.45 °C
